Test results from patent US20240228468A1, “N-(6-((OCTAHYDROCYCLOPENTA[C]PYRROL-5-YI)AMINO)PYRIDAZIN-3-YL)PHENYL)CARBOXAMIDE AND (6- ((OCTAHYDROCYCLOPENTA[C]PYRROL-5-YL)AMINO)PYRIDAZIN-3-YL)BENZAMIDE DERIVATIVES AS MACHR M4 ANTAGONISTS FOR THE TREATMENT OF NEURODEGENERATIVE DISORDERS” (Vanderbilt University, priority 2021, published 2024).
Like-named read-outs stand apart in the source and are kept apart here.

Molecular target: T1, Human M4 (Homo sapiens, UniProt P08173)
T1 construct: expressed in transfected cells; host or cells: CHO-K1 (ATCC), co-transfected with chimeric G protein Gqi5
T1 sequence (P08173 1-479): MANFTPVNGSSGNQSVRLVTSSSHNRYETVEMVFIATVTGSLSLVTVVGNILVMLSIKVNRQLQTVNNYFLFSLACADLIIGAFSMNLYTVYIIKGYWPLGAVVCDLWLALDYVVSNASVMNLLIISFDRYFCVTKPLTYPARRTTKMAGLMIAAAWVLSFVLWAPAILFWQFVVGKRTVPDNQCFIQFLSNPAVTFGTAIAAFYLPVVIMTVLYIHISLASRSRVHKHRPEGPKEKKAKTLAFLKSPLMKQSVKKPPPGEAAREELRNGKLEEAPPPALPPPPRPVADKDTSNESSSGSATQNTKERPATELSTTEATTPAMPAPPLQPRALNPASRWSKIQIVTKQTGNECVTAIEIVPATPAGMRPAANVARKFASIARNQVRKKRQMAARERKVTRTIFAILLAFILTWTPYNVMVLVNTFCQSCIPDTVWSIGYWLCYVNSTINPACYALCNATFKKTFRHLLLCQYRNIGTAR
Test: mAChR M4 cell-based functional assay (calcium flux, antagonism of EC80 acetylcholine response)
Settings: for IC50: concentration-dependent decrease of the response elicited by an EC80 concentration of acetylcholine
How it was run: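 CHO-K1 cells stably expressing human M4 with chimeric Gqi5, Fluo-4 loaded; calcium flux read on FDSS. Compound (10-point, 1:3 series) added first, then EC20 acetylcholine at 143 s and EC80 at 268 s. IC50 from concentration-dependent decrease of EC80 response, four-parameter logistic fit.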

[1] = M4/Gqi5/CHO-K1 cells, % ACh maximum at 30 μM, read-out: Human M4 Emin (% ACh maximum at 30 μM)

Row | SMILES | remaining activity at 30 µM [1] [%] | IC50 (M4/Gqi5/CHO-K1 cells) [nM] | remaining activity at 30 µM (CHO-K1, read-out: Human M4 Emin (% ACh maximum at 30 μM)) [%]
1 | CCC(=O)Nc1ccccc1-c1ccc(N[C@H]2C[C@@H]3CN(CC4CCOCC4)C[C@@H]3C2)nn1 [Compound A44, N-(2-(6-(((3aR,5s,6aS)-2-((tetrahydro-2H-pyran-4-yl)methyl)octahydrocyclopenta[c]pyrrol-5-yl)amino)pyridazin-3-yl)phenyl)propionamide] | 4 | 67 | –
2 | CNC(=O)c1ccccc1-c1ccc(N[C@H]2C[C@@H]3CN(CC4CCOCC4)C[C@@H]3C2)nn1 [Compound A45, N-methyl-2-(6-(((3aR,5s,6aS)-2-((tetrahydro-2H-pyran-4-yl)methyl)octahydrocyclopenta[c]pyrrol-5-yl)amino)pyridazin-3-yl)benzamide] | 6 | 180 | –
3 | [2H]C([2H])(C1CCOCC1)N1C[C@H]2C[C@H](Nc3ccc(-c4cccc(C(=O)NCC)c4)nn3)C[C@H]2C1 [Compound A46, N-ethyl-3-(6-(((3aR,5s,6aS)-2-((tetrahydro-2H-pyran-4-yl)methyl-d2)octahydrocyclopenta[c]pyrrol-5-yl)amino)pyridazin-3-yl)benzamide] | 4 | 20 | –
4 | [2H]C([2H])(C1CCOCC1)N1C[C@H]2C[C@H](Nc3ccc(-c4ccccc4C(=O)NC)nn3)C[C@H]2C1 [Compound A48, N-methyl-2-(6-(((3aR,5s,6aS)-2-((tetrahydro-2H-pyran-4-yl)methyl-d2)octahydrocyclopenta[c]pyrrol-5-yl)amino)pyridazin-3-yl)benzamide] | 4 | 74 | –
5 | [2H]C([2H])(C1CCOCC1)N1C[C@H]2C[C@H](Nc3ccc(-c4ccccc4NC(=O)CC)nn3)C[C@H]2C1 [Compound A50, N-(2-(6-(((3aR,5s,6aS)-2-((tetrahydro-2H-pyran-4-yl)methyl-d2)octahydrocyclopenta[c]pyrrol-5-yl)amino)pyridazin-3-yl)phenyl)propionamide] | 4 | 56 | –
6 | CCNC(=O)c1ccc(-c2ccc(N[C@H]3C[C@@H]4CN(CC5CCOCC5)C[C@@H]4C3)nn2)cc1 [Compound A51, N-ethyl-4-(6-(((3aR,5s,6aS)-2-((tetrahydro-2H-pyran-4-yl)methyl)octahydrocyclopenta[c]pyrrol-5-yl)amino)pyridazin-3-yl)benzamide] | 3 | 2.1 | –
7 | [2H]C([2H])(C1CCOCC1)N1C[C@H]2C[C@H](Nc3ccc(-c4ccc(C(=O)NCC)cc4)nn3)C[C@H]2C1 [Compound A52, N-ethyl-4-(6-(((3aR,5s,6aS)-2-((tetrahydro-2H-pyran-4-yl)methyl-d2)octahydrocyclopenta[c]pyrrol-5-yl)amino)pyridazin-3-yl)benzamide] | 5 | 7.8 | –
8 | [2H]C([2H])([2H])NC(=O)c1ccccc1-c1ccc(N[C@H]2C[C@@H]3CN(C([2H])([2H])C4CCOCC4)C[C@@H]3C2)nn1 [Compound A53, N-(methyl-d3)-2-(6-(((3aR,5s,6aS)-2-((tetrahydro-2H-pyran-4-yl)methyl-d2)octahydrocyclopenta[c]pyrrol-5-yl)amino)pyridazin-3-yl)benzamide] | 4 | 200 | –
9 | CCC(=O)Nc1cccc(-c2ccc(N[C@H]3C[C@@H]4CN(CC5CCOCC5)C[C@@H]4C3)nn2)c1 [Compound A56, N-(3-(6-(((3aR,5s,6aS)-2-((tetrahydro-2H-pyran-4-yl)methyl)octahydrocyclopenta[c]pyrrol-5-yl)amino)pyridazin-3-yl)phenyl)propionamide] | 4 | 43 | –
10 | [2H]C([2H])(C1CCOCC1)N1C[C@H]2C[C@H](Nc3ccc(-c4cccc(NC(=O)CC)c4)nn3)C[C@H]2C1 [Compound A57, N-(3-(6-(((3aR,5s,6aS)-2-((tetrahydro-2H-pyran-4-yl)methyl-d2)octahydrocyclopenta[c]pyrrol-5-yl)amino)pyridazin-3-yl)phenyl)propionamide] | 3 | 37 | –
11 | CCNC(=O)c1ccccc1-c1ccc(N[C@H]2C[C@@H]3CN(CC4CCOCC4)C[C@@H]3C2)nn1 [Compound A58, N-ethyl-2-(6-(((3aR,5s,6aS)-2-((tetrahydro-2H-pyran-4-yl)methyl)octahydrocyclopenta[c]pyrrol-5-yl)amino)pyridazin-3-yl)benzamide] | 6 | 200 | –
12 | [2H]C([2H])(C1CCOCC1)N1C[C@H]2C[C@H](Nc3ccc(-c4ccccc4C(=O)NCC)nn3)C[C@H]2C1 [Compound A59, N-ethyl-2-(6-(((3aR,5s,6aS)-2-((tetrahydro-2H-pyran-4-yl)methyl-d2)octahydrocyclopenta[c]pyrrol-5-yl)amino)pyridazin-3-yl)benzamide] | 6 | 170 | –
13 | [2H]C([2H])([2H])NC(=O)c1ccccc1-c1ccc(N[C@H]2C[C@@H]3CN(CC4CCOCC4)C[C@@H]3C2)nn1 [Compound A60, N-(methyl-d3)-2-(6-(((3aR,5s,6aS)-2-((tetrahydro-2H-pyran-4-yl)methyl)octahydrocyclopenta[c]pyrrol-5-yl)amino)pyridazin-3-yl)benzamide] | 6 | 210 | –
14 | [2H]C([2H])([2H])C(=O)Nc1cccc(-c2ccc(N[C@H]3C[C@@H]4CN(CC5CCOCC5)C[C@@H]4C3)nn2)c1 [Compound A61, N-(3-(6-(((3aR,5s,6aS)-2-((tetrahydro-2H-pyran-4-yl)methyl)octahydrocyclopenta[c]pyrrol-5-yl)amino)pyridazin-3-yl)phenyl)acetamide-2,2,2-d3] | 3 | 12 | –
15 | [2H]C([2H])([2H])C(=O)Nc1cccc(-c2ccc(N[C@H]3C[C@@H]4CN(C([2H])([2H])C5CCOCC5)C[C@@H]4C3)nn2)c1 [Compound A62, N-(3-(6-(((3aR,5s,6aS)-2-((tetrahydro-2H-pyran-4-yl)methyl-d2)octahydrocyclopenta[c]pyrrol-5-yl)amino)pyridazin-3-yl)phenyl)acetamide-2,2,2-d3] | 3 | 13 | –
16 | CNC(=O)c1ccc(-c2ccc(N[C@H]3C[C@@H]4CN(CC5CCOCC5)C[C@@H]4C3)nn2)cc1 [Compound A63, N-methyl-4-(6-(((3aR,5s,6aS)-2-((tetrahydro-2H-pyran-4-yl)methyl)octahydrocyclopenta[c]pyrrol-5-yl)amino)pyridazin-3-yl)benzamide] | 3 | 1.2 | –
17 | [2H]C([2H])(C1CCOCC1)N1C[C@H]2C[C@H](Nc3ccc(-c4cc(F)c(C(N)=O)c(F)c4F)nn3)C[C@H]2C1 [Compound A65, 2,3,6-trifluoro-4-(6-(((3aR,5s,6aS)-2-((tetrahydro-2H-pyran-4-yl)methyl-d2)octahydrocyclopenta[c]pyrrol-5-yl)amino)pyridazin-3-yl)benzamide] | 5 | 6.3 | –
18 | [2H]C([2H])(C1CCOCC1)N1C[C@H]2C[C@H](Nc3ccc(-c4cc(F)c(C(=O)NC)c(F)c4F)nn3)C[C@H]2C1 [Compound A66, 2,3,6-trifluoro-N-methyl-4-(6-(((3aR,5s,6aS)-2-((tetrahydro-2H-pyran-4-yl)methyl-d2)octahydrocyclopenta[c]pyrrol-5-yl)amino)pyridazin-3-yl)benzamide] | 4 | 16 | –
19 | [2H]C([2H])(C1CCOCC1)N1C[C@H]2C[C@H](Nc3ccc(-c4cc(F)c(C(=O)N(C)C)c(F)c4F)nn3)C[C@H]2C1 [Compound A67, 2,3,6-Trifluoro-N,N-dimethyl-4-(6-(((3aR,5s,6aS)-2-((tetrahydro-2H-pyran-4-yl)methyl-d2)octahydrocyclopenta[c]pyrrol-5-yl)amino)pyridazin-3-yl)benzamide] | – | 11 | 4
20 | [2H]C([2H])(C1CCOCC1)N1C[C@H]2C[C@H](Nc3ccc(-c4cc(F)c(C(N)=O)c(F)c4)nn3)C[C@H]2C1 [Compound A68, 2,6-difluoro-4-(6-(((3aR,5s,6aS)-2-((tetrahydro-2H-pyran-4-yl)methyl-d2)octahydrocyclopenta[c]pyrrol-5-yl)amino)pyridazin-3-yl)benzamide] | 4 | 11 | –
21 | [2H]C([2H])(C1CCOCC1)N1C[C@H]2C[C@H](Nc3ccc(-c4cc(C(=O)NC)ccc4F)nn3)C[C@H]2C1 [Compound A69, 4-fluoro-N-methyl-3-(6-(((3aR,5s,6aS)-2-((tetrahydro-2H-pyran-4-yl)methyl-d2)octahydrocyclopenta[c]pyrrol-5-yl)amino)pyridazin-3-yl)benzamide] | 5 | 120 | –
